Measured values reported in patent US9358243B2, “Pharmaceutical compounds for use in the therapy of Clostridium difficile infection” (ETH Zurich, priority 2011, dated 2016).

Experiments:
[1] = target: T1, His-tagged cysteine protease domain of C. difficile toxin B (Clostridioides difficile, UniProt P18177); experiment: Determination of EC50 in presence of 10 mM Ca2+ (cleavage of TcdB cysteine protease domain, SDS-PAGE); format: biochemical, Clostridium difficile; conditions: for activity (cleavage of TcdB CPD) in the presence of calcium, compared with IP6: in the presence of calcium (10 mM Ca2+); for cleavage activity at 100 μM: 100 μM compound, 10 mM Ca2+, FIG. 1A
T1 construct: cysteine protease domain of C. difficile toxin B
Method: The compound to be tested was added to a recombinant His-tagged cysteine protease domain of C. difficile toxin B of SEQ ID 1 in presence of 10 mM Ca^2+ in 100 mM Tris pH7.4 and incubated for 2 h at 37° C. Cleaved protein fragments were separated by SDS-PAGE and visualized by Coomassie staining. The extent of cleavage quantified from protein band intensities using the ImageJ software package. Signals were normalized to cleavage of positive and negative controls.

[2] = target: T1, His-tagged cysteine protease domain of C. difficile toxin B; experiment: Comparison of cleavage kinetics in presence of 10 mM Ca2+; format: biochemical, Clostridium difficile; conditions: 37° C., FIG. 1B
Method: The compound to be tested was added to the His-tagged cysteine protease domain of C. difficile toxin B (same sequence as given above) in presence of 10 mM Ca^2+ in 100 mM Tris pH 7.4 and incubated for 24 h at 37° C., with aliquots removed at regular intervals. Cleaved protein fragments were separated, visualized and analyzed as indicated above.

T1 sequence (P18177 544-799 limits assumed): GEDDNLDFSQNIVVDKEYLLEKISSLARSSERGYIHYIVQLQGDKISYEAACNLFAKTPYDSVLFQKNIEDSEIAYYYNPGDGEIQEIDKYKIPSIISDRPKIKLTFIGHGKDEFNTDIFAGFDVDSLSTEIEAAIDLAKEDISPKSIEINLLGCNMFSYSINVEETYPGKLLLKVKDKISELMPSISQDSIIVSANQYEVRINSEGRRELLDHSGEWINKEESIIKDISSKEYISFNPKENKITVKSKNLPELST

Compound: O=S(=O)(O)OC1C(OS(=O)(=O)O)C(OS(=O)(=O)O)C(OS(=O)(=O)O)C(OS(=O)(=O)O)C1OS(=O)(=O)O (stereo not shown) [IS6, inositolhexakissulfate]
- activity (cleavage of TcdB CPD) in the presence of calcium, compared with IP6 [1]: much more active than IP6

Compound: myo-inositol-pentakisphosphate-2-PEG(400) [(7)]
- extent of cleavage after 4 h relative to IP6 [2]: 5 fold
- cleavage activity at 100 μM [1]: retains residual activity
- activity (cleavage of TcdB CPD) in the presence of calcium, compared with IP6 [1]: improved ability to cleave TcdB CPD

Compound: O=P(O)(O)O[C@H]1[C@H](OP(=O)(O)O)[C@@H](OP(=O)(O)O)[C@H](OP(=O)(O)O)[C@@H](OP(=O)(O)O)[C@H]1OP(=O)(O)O [IP6, myo-inositol hexakisphosphate, reference compound]
- EC50 [1]: 601 µM
- cleavage activity at 100 μM [1]: disappears almost completely

Compound: O=P(O)(O)O[C@H]1[C@H](OS(=O)(=O)O)[C@@H](OP(=O)(O)O)[C@H](OS(=O)(=O)O)[C@@H](OP(=O)(O)O)[C@H]1OS(=O)(=O)O [PSPSPS]
- EC50 [1]: 20 µM
